Measurements taken from paper PMC2346451 (PLoS ONE, 2008).
Where two headings read alike, the source gives them in different places.

What was measured:
mouse TRPV3 (mTRPV3) = target: T1, mouse TRPV3 (mTRPV3) (Mus musculus, UniProt Q8K424); assay: Whole-cell patch clamp of mouse TRPV3 expressed in HEK-293T cells; type: cell-based; details: for Increase of agonist-evoked current prior to onset of inhibition: citral 1 mM, n = 7
T1 sequence (Q8K424 1-791): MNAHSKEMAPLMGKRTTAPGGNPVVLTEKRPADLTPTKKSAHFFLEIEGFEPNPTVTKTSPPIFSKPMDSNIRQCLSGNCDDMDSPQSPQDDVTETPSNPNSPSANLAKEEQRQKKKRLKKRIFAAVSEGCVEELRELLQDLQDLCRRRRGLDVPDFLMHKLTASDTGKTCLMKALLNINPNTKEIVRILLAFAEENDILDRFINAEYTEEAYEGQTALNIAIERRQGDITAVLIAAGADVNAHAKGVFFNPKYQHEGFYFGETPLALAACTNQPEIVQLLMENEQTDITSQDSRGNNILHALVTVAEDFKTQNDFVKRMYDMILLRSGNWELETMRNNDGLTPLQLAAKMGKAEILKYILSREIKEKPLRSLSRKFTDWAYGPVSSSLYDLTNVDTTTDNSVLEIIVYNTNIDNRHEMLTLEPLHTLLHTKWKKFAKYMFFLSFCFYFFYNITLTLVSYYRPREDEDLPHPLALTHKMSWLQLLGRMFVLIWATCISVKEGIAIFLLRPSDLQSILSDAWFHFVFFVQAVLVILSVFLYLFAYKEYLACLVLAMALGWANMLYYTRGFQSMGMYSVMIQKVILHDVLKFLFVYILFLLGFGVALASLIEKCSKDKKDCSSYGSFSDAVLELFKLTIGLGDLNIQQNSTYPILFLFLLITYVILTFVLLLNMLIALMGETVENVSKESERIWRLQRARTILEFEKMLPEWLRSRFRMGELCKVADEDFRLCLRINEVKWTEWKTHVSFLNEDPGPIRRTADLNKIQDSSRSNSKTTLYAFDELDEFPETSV
Protocol: (§1) Transformed human embryonic kidney-293 (HEK-293T) cells were grown in Dulbecco's modified Eagle's medium (DMEM)+F-12 supplemented with 10% fetal calf serum, and 1% penicillin/streptomycin in 5% CO2 at 37°C. Cells grown to 90% confluence in 35 mm Petri dishes were transiently transfected with plasmid DNA encoding a TRP channel construct (1 µg). Rat TRPV1 (rTRPV1) was cloned into an enhanced green fluorescent protein-containing vector (pTracer-CMV2; Invitrogen, Carlsbad, CA). Chicken TRPV1 (cTRPV1), the chicken rat TRPV1 chimera (crcTRPV1), rat TRPV2 (rTRPV2), mouse TRPV3 (mTRPV3), mouse TRPV4 (mTRPV4), rat TRPM8 (rTRPM8), and rat TRPA1 (rTRPA1), were cloned into pcDNA3 and co-transfected with enhanced green fluorescent protein (0.1 µg) to follow expression. The cTRPV1 and crcTRPV1 clones were kindly provided by Dr. David Julius. Recordings were carried out 24–36 hours after transfection. Cells were split via trypsin EDTA, plated on glass coverslips at 5–10% confluence, and used 2–3 hours later.
Electrophysiological experiments were performed using the whole-cell patch-clamp technique at room temperature. Modified Ringer's solution with low chloride and nominal calcium contained (in mM): 130 sodium hydroxide, 5 potassium chloride, 1 magnesium chloride, 10 sodium 4-(2-hydroxyethyl)-1-piperazineethanesulfonic acid, 10 2-(N-morpholino)ethanesulfonic acid, and 20 glucose (pH 7.4; 310 milli-osmolar). […] 2 mM calcium chloride was included in the external solution where noted. To activate TRPV1, the modified Ringer's solution was made at pH 5 (low pH solution) and the chloride concentration was kept to a minimum to prevent contamination of the TRPV1 currents with acid-activated chloride currents. For recordings from heterologously expressing cells, the internal pipette solution contained (in mM): 125 cesium-Methanesulfonate, 10 cesium (1.2-bis(o-aminophenoxy)ethane-N,N,N',N'-tetraacetic acid, 8 sodium chloride, 4 magnesium adenosine triphosphate, and 10 HEPES (pH 7.2; 290 mOSM; nominal free calcium concentrations). For TRPA1 and dorsal root ganglion recordings, the internal pipette solution contained (in mM): 110 cesium-Methanesulfonate, 0.5 cesium4BAPTA, 8 sodium chloride, 0.2 calcium chloride, 4 magnesium-ATP, 4 sodium-GTP, and 10 4-(2-hydroxyethyl)-1-piperazineethanesulfonic acid (pH 7.2; 290 mOSM; 100 nM free calcium internal). MaxChelator was used to calculate the free calcium concentration (http://www.stanford.edu/cpatton/maxc.html).
Recordings were obtained using an Axopatch 200B amplifier, Digidata 1322A analog-to-digital converter, and pClamp 8.01 software (Molecular Devices, Union City, CA). Data were low-pass filtered at 2 kHz and digitized at 5 kHz. Borosilicate glass pipettes (World Precision Instruments, Sarasota, FL) were typically 3 MΩ pipette resistance after fire polishing. Cell capacitance was measured for each cell, and access resistance compensated to ∼80%. Recordings were begun ∼5 minutes after initial rupture to ensure initial steady state conditions. Current-voltage (I-V) relations were obtained using a ramp protocol. Voltage ramps (400 ms) from −100 to +40 or +100 mV were applied every 1–2 seconds and the holding potential was either −70 mV or 0 mV (see Figure Legends). A 40 ms step was added at the beginning and end of the ramp (i.e. at −100 mV, +40 mV or +100 mV). Liquid junction potentials were not corrected.
The dose response curves were fit with the Hill equation, where [drawing 8] and [A] is the concentration of agonist or blocker, N is the Hill coefficient, and KD is the [A] for Imeasured/Imax = 0.5. The term apparent dissociation constant is used in place of the half concentration of excitation and inhibition. […] Averaged data are presented as mean±standard error (S.E.) throughout. Statistical analysis included paired and unpaired Student's t-test comparisons of the data; p values are reported in the text.

Chicken TRPV1 (cTRPV1) = assay: Whole-cell patch clamp of chicken TRPV1 expressed in HEK-293T cells; type: cell-based
Protocol: as §1
Electrophysiological experiments were performed using the whole-cell patch-clamp technique at room temperature. […]
Recordings were obtained using an Axopatch 200B amplifier, Digidata 1322A analog-to-digital converter, and pClamp 8.01 software (Molecular Devices, Union City, CA). […] Cell capacitance was measured for each cell, and access resistance compensated to ∼80%. […]

With `CC(C)=CCCC(C)=CC=O` [citral, 3,7-dimethyl-2,6-octadienal] as the molecule, how does the “Hill coefficient (activation)” value (mouse TRPV3 (mTRPV3)) read?
Its value is 22.3.

And the “Reversibility of citral inhibition of agonist-evoked current” value (mouse TRPV3 (mTRPV3))?
The value was “essentially irreversible”.

And the “Increase of agonist-evoked current prior to onset of inhibition” value (mouse TRPV3 (mTRPV3); +100 mV)?
The value was 1.3±0.1 fold.

What about the “Increase of agonist-evoked current prior to onset of inhibition” value (mouse TRPV3 (mTRPV3); −100 mV) of the same molecule?
Its value is 1.7±0.3 fold.

What about the Kd (mouse TRPV3 (mTRPV3); citral activation, nominal external calcium, read-out: Activation KD, app) of the same molecule?
The Kd was 926 µM.

And the “Hill coefficient (inhibition)” value (mouse TRPV3 (mTRPV3); citral block of 2-aminoethyldiphenyl borate-evoked current)?
Its value is 4.0.

What about the Kd (mouse TRPV3 (mTRPV3); citral block of current evoked by 700 µM 2-aminoethyldiphenyl borate, read-out: Inhibition KD, app) of the same molecule?
The Kd was 465 µM.

And the “Agonist efficacy I2-APB (100 µM)/Icitral (1 mM)” value (mouse TRPV3 (mTRPV3); fold larger, −40 mV, n = 6)?
The value was “I2-APB (100 µM)/Icitral (1 mM) 25±14 fold larger (n = 6; −40 mV)”.

What about the “Time for >50% inhibition of peak TRP current in continued presence of citral” value (mouse TRPV3 (mTRPV3); n = 6) of the same molecule?
The value was at most 6 s.

What about the “Increase of inward ITRPV3 above baseline” value (mouse TRPV3 (mTRPV3); −40 mV) of the same molecule?
Its value is 38 fold.

What about the “Activation of cTRPV1 current” value (Chicken TRPV1 (cTRPV1); n = 6) of the same molecule?
The value was “did not activate”.

And the “Effect on cTRPV1 currents activated by pH 5 solution” value (Chicken TRPV1 (cTRPV1); pH 5)?
Its value is “reversibly inhibited”.
